For 16 compounds, IC50 results are on record in patent publication US20160101188A1, “NOVEL NANOCARRIER DELIVERED CANCER CHEMOTHERAPEUTIC AGENTS” (UNIVERSITY OF CINCINNATI, priority 2013, published 2016).

The subject of this experiment is MCF7 (breast cancer) cells. Description: MTT cytotoxicity assay in MCF7 breast cancer cells. Type of experiment: cell-based. The note with it: 65 hours incubation, read-out: IC50, viability of MCF7 cells from the MTT assay. Here is the method:
The cyctoxicity of compounds was determined in MCF 7 (breast cancer) cells.
MCF7 cells were grown in RPMI 1640 media with 10 nM estrogen and 1 mM insulin. Cells were tyripsinized and resuspended at a density of 2.2×10^4 cells per mL. 500 μL of this suspension was added to each well in a 24 well plate. The plates were incubated at 37° C. and 5% CO2 atmosphere overnight. The media was changed, and plates were dosed in triplicate with compound dissolved in DMSO. Cells were dosed not to exceed 0.5% DMSO in solution. Cells were dosed to a final concentration of 100, 50, 25, 12.5, and 6.25 μM of compound. 5-Flurouracil was used as a positive control and dosed in the same manner. Plates were incubated for 65 hours prior to the addition of MTT solution. 500 μL of a 193 μg/mL MTT and media solution was added to each well. Plates were incubated for 3 hours. The MTT solution was removed and 500 μL of DMSO was added to each well. Cells were imaged using GS 800 Bio Rad scanner and Quality One Software. IC50 curves were determined by plotting viability verses compound concentration. Kaleidagraph software was used to calculate the R value for each logarithmic curve fitting.

Where two headings read alike, the source gives them in different places.

The IC50 is the midpoint of a concentration-inhibition curve. As for `CC(C)C(OCc1c[nH]c(=O)[nH]c1=O)c1ccccc1` (stereo not shown) [KB-1-1, 5-[1-phenyl-2-(methyl)propoxymethyl]uracil], the IC50 (Homo sapiens, MCF7, 65 h) is > 200 µM. Turning to `O=c1[nH]c(=O)n([C@H]2C[C@H](O)[C@@H](CO)O2)cc1COC(c1ccccc1)c1ccccc1` [KB-1-10, 5-[(diphenyl)methoxymethyl]-2′-deoxyuridine], the IC50 (Homo sapiens, MCF7, 65 h) was 160 µM. In the case of `CC(C)(C)C(OCc1c[nH]c(=O)[nH]c1=O)c1ccccc1` (stereo not shown) [KB-1-23, 5-[1-phenyl-2,2-(dimethyl)propoxymethyl]uracil], the IC50 came to 59 µM. Same read-out and setting: then `COc1ccc(C(OCc2cn([C@H]3C[C@H](O)[C@@H](CO)O3)c(=O)[nH]c2=O)C(C)(C)C)cc1` (stereo partly shown) [KB-1-55, 5-[1-(4-methoxyphenyl)-2,2-(dimethyl)propoxymethyl]-2′-deoxyuridine], with 183 µM; and `O=c1[nH]c(=O)n([C@H]2C[C@H](O)[C@@H](CO)O2)cc1COC(c1ccccc1)c1ccccc1[N+](=O)[O-]` (stereo partly shown) [KB-1-85, 5-[{(2-nitrophenyl)phenyl}methoxymethyl]-2′-deoxyundine], with 50 µM; and `CC(C)(C)CC(OCc1cn([C@H]2C[C@H](O)[C@@H](CO)O2)c(=O)[nH]c1=O)c1ccccc1[N+](=O)[O-]` (stereo partly shown) [KB-1-91, 5-[1-(2-nitrophenyl)-3,3-(dimethyl)butoxymethyl]-2′-deoxyuridine], with 62 µM.

For `Cc1ccccc1C(OCc1cn([C@H]2C[C@H](O)[C@@H](CO)O2)c(=O)[nH]c1=O)C(C)(C)C` (stereo partly shown) [KB-1-100, 5-[1-(2-methyl)phenyl-2,2-(dimethyl)propoxymethyl]-2′-deoxyuridine], the half-inhibitory concentration (IC50) worked out at 121 µM. On the same count and under the same terms, next, `CC(C)(C)C(OCc1cn([C@H]2C[C@H](O)[C@@H](CO)O2)c(=O)[nH]c1=O)c1ccccc1CBr` (stereo partly shown) [KB-1-135, 5-[1-(2-bromomethyl)phenyl-2,2-(dimethyl)propoxymethyl]-2′-deoxyuridine]: 72 µM. Regarding `CC(C)COC(c1ccccc1)c1cn([C@H]2C[C@H](O)[C@@H](CO)O2)c(=O)[nH]c1=O` (stereo partly shown) [MPB-1-25, 5-[1-(phenyl)-2-(methyl)-1-propoxymethyl]-2′-deoxyuridine], the IC50 (Homo sapiens, MCF7, 65 h) is > 150 µM.

`CC(C)(C)C(OCc1cn([C@H]2C[C@H](O)[C@@H](CO)O2)c(=O)[nH]c1=O)c1ccc(I)cc1[N+](=O)[O-]` (stereo partly shown) [MPB-1-33, 5-[1-(4-iodo-2-nitrophenyl)-2,2-(dimethyl)propoxymethyl]-2′-deoxyuridine]: the IC50 was 56 ± 6 µM. For `COc1ccccc1C(OCc1cn([C@H]2C[C@H](O)[C@@H](CO)O2)c(=O)[nH]c1=O)C(C)(C)C` (stereo partly shown) [MPB-1-36, 5-[1-(2-methoxyphenyl)-2,2-(dimethyl)propoxymethyl]-2′-deoxyuridine], the IC50 was found to be 94 µM. Turning to `CC(C)(C)C(OCc1cn([C@H]2C[C@H](O)[C@@H](CO)O2)c(=O)[nH]c1=O)c1ccc(C#CCOc2ccc3ccc(=O)oc3c2)cc1[N+](=O)[O-]` (stereo partly shown) [MPB-1-41, 5-[1-(4-{3-(7-coumarin)oxy}proyn-1-yl-2-nitrophenyl)-2,2-(dimethyl)propoxymethyl]-2′-deoxyuridine], the IC50 was 16 ± 3 µM. For the compound `CC(C)(C)C(OCc1cn([C@H]2C[C@H](O)[C@@H](CO)O2)c(=O)[nH]c1=O)c1ccccc1Cl` (stereo partly shown) [MPB-1-49, 5-[1-(2-chlorophenyl)-2,2-(dimethyl)propoxymethyl]-2′-deoxyundine], the IC50 came out at 80 µM. With `CC(C)(C)C(OCc1cn([C@H]2C[C@H](O)[C@@H](CO)O2)c(=O)[nH]c1=O)c1c([N+](=O)[O-])cccc1[N+](=O)[O-]` (stereo partly shown) [MPB-1-55, 5-[1-(2,6-dinitrophenyl)-2,2-(dimethyl)propoxymethyl]-2′-deoxyuridine], the IC50 was found to be 96 µM. For `CC(C)(C)C(OCc1cn([C@H]2C[C@H](O)[C@@H](CO)O2)c(=O)[nH]c1=O)c1c(Cl)cccc1Cl` (stereo partly shown) [MPB-1-57, 5-[1-(2,6-dichlorophenyl)-2,2-(dimethyl)propoxymethyl]-2′-deoxyuridine], the IC50 was determined as 60 µM. As to `O=c1[nH]c(=O)n([C@H]2C[C@H](O)[C@@H](CO)O2)cc1COC(c1ccccc1)C1CCCCC1` (stereo partly shown) [PRW-1-13, 5-[1-(phenyl)-1-(cyclohexyl)methoxymethyl]-2′-deoxyundine], the IC50 was found to be 93 µM.
